Experimental data published in US20220401429A1, “USE OF ANAMORELIN TO TREAT CANCER-RELATED FATIGUE” (Helsinn Healthcare SA, priority 2021, published 2022).

What was measured:
[1] = system: patients with advanced cancer; assay: FACIT-F fatigue subscale, single arm study of anamorelin (Example 1); assay type: in vivo, human; settings: for FACIT-F Fatigue Subscale, change, Mean (±SD): change from baseline, 100 mg oral daily + physical activity + nutritional counseling
Source text: This study was undertaken to isolate and evaluate anamorelin's effect on fatigue, energy expenditure, and other side effects of cancer in a cancer-stricken population, by including in the study population only those patients suffering significant levels of fatigue and inflammatory activity, excluding from the study population confounding factors such as depression and anemia, and controlling for a consistent level of nutrition and physical exercise.
(§1) In this single arm study, 38 patients were intended for treatment with anamorelin for 6 weeks with an optional extension phase of 6 more weeks based on tolerability and safety and patient willingness. Patients received anamorelin 100 mg tablets and physical activity for 6 weeks for the intervention phase. Patients took 1 tablet orally while fasting (at least 1 hour before a meal).
• diagnosis of advanced cancer (metastatic or recurrent incurable solid tumors excluding prostate cancer) • fatigue on FACIT-F subscale of ≤34 on a 0 to 52 scale [in which 52=no fatigue and 0=worst possible fatigue] • CRP ≥3 mg/L* in the absence of any other more likely cause of increased CRP like an infection or an autoimmune disorder • unintentional weight loss of from 2% to 15% at any time within the previous 12 months • No evidence of moderate to severe depression as determined by a HADS depression score of ≤13 • Hemoglobin level ≥9 g/dL
A primary objective of the study was to examine the effects of anamorelin and standardized physical activity and nutritional counseling on changes in the Functional Assessment of […] (FACIT-F) subscale score at Day 43±3 days compared to baseline in patients with advanced cancer receiving oral anamorelin 100 mg daily and standardized physical activity and nutritional counseling.
FACIT-F is a well-validated QOL instrument in cancer patients (Cella, Tulsky et al. 1993). The 13-item fatigue subscale is a patient-rated assessment of intensity of fatigue and its related symptoms on a scale of 0 to 4.

[2] = system: patients with advanced cancer; assay: Edmonton Symptom Assessment Scale (ESAS), Example 1 study; assay type: in vivo, human; settings: change from baseline, 100 mg oral daily + physical activity + nutritional counseling
Procedure: as §1
(§2) Secondary objectives of the study were to examine the effects of anamorelin and standardized physical activity and nutritional counseling on Health-related quality of life and patient reported outcomes as measured by The Multidimensional Fatigue Symptom Inventory-Short Form[MFSI-SF], PROMIS-Fatigue, Hospital Anxiety Depression Scale (HADS), Edmonton Symptom Assessment Scale (ESAS), Functional Assessment of Cancer Therapy (FACT-G), and its Functional Assessment of Anorexia/Cachexia Treatment (FAACT) subscale in these patients.
The ESAS measures 10 common symptoms in the past 24 hours (pain, fatigue, nausea, depression, anxiety, drowsiness, shortness of breath, appetite, sleep, and feeling of well-being); This questionnaire has been found valid and reliable in cancer populations (Bruera, Kuehn et al. 1991).

[3] = system: patients with advanced cancer; assay: PROMIS-Fatigue, Example 1 study; assay type: in vivo, human; settings: change from baseline, 100 mg oral daily + physical activity + nutritional counseling
Procedure: as §1, §2
PROMIS measures key symptoms and health concepts applicable to advanced cancer, enabling efficient and interpretable clinical trial research and clinical practice application of patient-reported outcomes (PROs) (Rothrock, Hays et al. 2010, Yost, Eton et al. 2011).

[4] = system: patients with advanced cancer; assay: Pittsburgh Sleep Quality Index (PSQI), Example 1 study; assay type: in vivo, human; settings: 100 mg oral daily + physical activity + nutritional counseling
Procedure: as §1

[5] = system: patients with advanced cancer; assay: Godin Leisure-Time physical activity questionnaire, Example 1 study; assay type: in vivo, human; settings: Day 86 (N = 8), change from baseline, 100 mg oral daily + physical activity + nutritional counseling
Procedure: as §1
Measures: We used the 30 second chair stand test, six-minute walk test, and an accelerometer. A self-report exercise questionnaire, the Godin Leisure-Time physical activity questionnaire, was used to complement the objective measures. IM Systems-three dimensional accelerometers (“Biotrainer-Pro”) was used to objectively measure physical activity.
(§3) Physical Performance Tests: The 30 second chair stand test, 6-minute walk test, and Godin Leisure-Time physical activity questionnaire were administered at baseline and on Day 43. The 30 second sit-to-stand task assessed lower body strength (Rikli and Jones 1999).
The Godin Leisure-Time physical activity questionnaire asks participants how many times per week on average they participate in strenuous, moderate and mild exercises for more than 15 minutes during their free time. […]

[6] = system: patients with advanced cancer; assay: Global Symptom Evaluation, Example 1 study; assay type: in vivo, human; settings: time point not clearly stated; 100 mg oral daily + physical activity + nutritional counseling
Procedure: as §1

IGF-1 = IGF-1 level, Example 1 study; assay type: in vivo, human; settings: Day 43, 28 evaluable patients, 100 mg oral daily + physical activity + nutritional counseling
Procedure: as §1

[7] = system: patients with advanced cancer; assay: Physical performance tests (30 second chair stand test, 6-minute walk test), Example 1 study; assay type: in vivo, human; settings: Day 43 vs baseline, 100 mg oral daily + physical activity + nutritional counseling
Procedure: as §1
Exploratory objectives of the study were to explore the effects of anamorelin and standardized physical activity and nutritional counseling on muscle function (as measured by the 30 second chair stand test, 6 minute walk test, day time activity (accelerometer), body composition (as measured by INBODY), and Resting Energy Expenditure (measured by indirect calorimetry)
Measures: We used the 30 second chair stand test, six-minute walk test, and an accelerometer. A self-report exercise questionnaire, the Godin Leisure-Time physical activity questionnaire, was used to complement the objective measures. […]
as §3
In the six-minute walk test, participants were asked to walk as fast and as far as they can for six minutes, and the distance walked was measured. […]

[8] = system: Patients With Non—Small Cell Lung Cancer and Cachexia; settings: study by Katakami and Uchino et al. 2018; cited from earlier work

CN(C)N(C)C(=O)[C@@]1(Cc2ccccc2)CCCN(C(=O)[C@@H](Cc2c[nH]c3ccccc23)NC(=O)C(C)(C)N)C1 [anamorelin]
FACIT-F increase from baseline, linear mixed model with time as categorical variable ([1]; 43-day measure): 4.89 | FACIT-F Fatigue Subscale, change, Mean (±SD) ([1]; Day 15 (N = 28)): 3.89 (±8.71), | FACIT-F Fatigue Subscale, change, Mean (±SD) ([1]; Day 29 (N = 28)): 6.32 (±9.53), | FACIT-F Fatigue Subscale, change, Mean (±SD) ([1]; Day 86 (N = 8)): 8.13 (±12.62), | Effect size for improvement in CRF ([1]; this study, FACIT-F Day 43 (Cohen's D)): 0.37 | FACIT-F average increase over time, linear mixed model ([1]; time effect, FIG. 1): 0.11 units per day | ESAS Appetite, change, Mean (±SD) ([2]; Day 15 (N = 28)): −0.43 (±3.06), | ESAS-Fatigue, change, Mean (±SD) ([2]; Day 15 (N = 28)): −0.68 (±2.87), | ESAS Appetite, change, Mean (±SD) ([2]; Day 29 (N = 28)): −1.04 (±3.19), | ESAS-Fatigue, change, Mean (±SD) ([2]; Day 29 (N = 28)): −0.75 (±2.70), | ESAS Appetite, change, Mean (±SD) ([2]; Day 43 (N = 28)): −0.56 (±3.07), | ESAS-Fatigue, change, Mean (±SD) ([2]; Day 43 (N = 28)): −0.81 (±2.87), | ESAS Appetite, change, Mean (±SD) ([2]; Day 86 (N = 8)): −0.13 (±3.09), | ESAS-Fatigue, change, Mean (±SD) ([2]; Day 86 (N = 8)): −1.25 (±2.43), | PROMIS-Fatigue, change, Mean (±SD) ([3]; Day 15 (N = 28)): −2.74 (±6.12), | PROMIS-Fatigue, change, Mean (±SD) ([3]; Day 29 (N = 28)): −3.64 (±8.22), | PROMIS-Fatigue, change, Mean (±SD) ([3]; Day 86 (N = 8)): −6.36 (±6.32), | PSQI (N = 15), change, Mean (±SD) ([4]; Day 29, change from baseline): −0.09 (±4.18), | PSQI (N = 15), change, Mean (±SD) ([4]; Day 43, change from baseline): −0.09 (±2.12), | PSQI (N = 15), change, Mean (±SD) ([4]; Day 86, change from baseline): −0.50 (±2.95), | Godin Leisure Test Total, change, Mean (±SD) [5]: −0.67 (±6.35), | Global Symptom Evaluation: About the same N (%) [6]: 9 (36%) | Global Symptom Evaluation: Better N (%) [6]: 13 (52%) | Global Symptom Evaluation: Worse N (%) [6]: 3 (12%) | IGF-1 change from baseline, mean (SD) (IGF-1): 36.50 (±48.76) | Improvement in the physical performance outcomes [7]: no significant improvement | Effect size for improvement in CRF [8]: 0.057
